A short description of the series: physchem. It counts as physicochemical. As to conditions: for residual rate: after standing 3 weeks at 40°C, 75% relative humidity, HPLC.

Molecule `CC1(C)CCC[C@](C)([C@H]2CC[C@]3(C)[C@@H]2[C@H](O)C[C@@H]2[C@@]4(C)CC[C@H](O)C(C)(C)[C@@H]4CC[C@]23C)O1` [PD, パナキサジオール] yielded a share remaining at 504 h of 99.7%.

Regarding `CC(C)=CCC[C@](C)(O)[C@H]1CC[C@]2(C)[C@@H]1[C@H](O)C[C@@H]1[C@@]3(C)CC[C@H](O)C(C)(C)[C@@H]3CC[C@]12C` [PPD, プロトパナキサジオール], the residual rate entry is given as “検出されなかった”.

As to `CC(C)=CCC[C@](C)(O)[C@H]1CC[C@]2(C)[C@@H]1[C@H](O)C[C@@H]1[C@@]3(C)CC[C@H](O)C(C)(C)[C@@H]3[C@@H](O)C[C@]12C` [PPT, プロトパナキサトリオール], the residual rate entry was “検出されなかった”.

`CC1(C)CCC[C@](C)([C@H]2CC[C@]3(C)[C@@H]2[C@H](O)C[C@@H]2[C@@]4(C)CC[C@H](O)C(C)(C)[C@@H]4[C@@H](O)C[C@]23C)O1` [PT, パナキサトリオール] displayed a fraction remaining at 504 h of 99.8%.

These data come from patent JP2011135835A, “ダンマラン系トリテルペン類含有組成物及び呈味改善方法” (Lion Corp, priority 2009, dated 2011).
